{
  "source": "ChEMBL document CHEMBL1143316",
  "about": "“Japonicones A-D, bioactive dimeric sesquiterpenes from Inula japonica Thunb” (Bioorg Med Chem Lett, 2009)",
  "assay_type_in_all_cases": "functional, cell-based",
  "key": {"A549": {"test_system": "A549", "experiment": "Cytotoxicity against human A549 cells by MTT assay"}, "LoVo": {"test_system": "LoVo", "experiment": "Cytotoxicity against human LoVo cells by MTT assay"}, "CCRF-CEM": {"test_system": "CCRF-CEM", "experiment": "Cytotoxicity against human CEM cells by MTT assay"}, "MDA-MB-435": {"test_system": "MDA-MB-435", "experiment": "Cytotoxicity against human MDA-MB-435 cells by MTT assay"}},
  "data": [
    {"smiles": "C=C1C(=O)O[C@@H]2C[C@@H](C)[C@]34C[C@]5(C(=O)O[C@H]6C[C@@]7(C)C(=C[C@H]65)[C@H](C)CC[C@@H]7O)[C@H](C(C)=C3C[C@@H]12)[C@@H]4OC(C)=O", "note": "[JAPONICONE A]", "values": [
      {"measurement": "IC50", "setting": "A549", "result": 1.62, "unit": "µg/mL"},
      {"measurement": "IC50", "setting": "LoVo", "result": 0.256, "unit": "µg/mL"},
      {"measurement": "IC50", "setting": "CCRF-CEM", "result": 0.001, "unit": "µg/mL"},
      {"measurement": "IC50", "setting": "MDA-MB-435", "result": 0.198, "unit": "µg/mL"}
    ]}
  ]
}
